Data: ChEMBL document CHEMBL1201862, “PubChem BioAssay data set” (2004)
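In this assay, cells in 96-well plates receive the compound at five concentrations for 48 hours. Endpoints are linearly interpolated between the surrounding concentrations. GI50: concentration for 50% inhibition of growth.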 Calls of active or inactive are those of the source. No stated cut-off is given here; in the data, active = GI50 up to about 1.1 µM and inactive = higher.

Experiments:
Test in all cases: inhibition of tumour cell growth, NCI panel, 48 h
[1] = system: OVCAR-3
[2] = system: ACHN
[3] = system: UO-31
[4] = system: CCRF-CEM
[5] = system: 786-0
[6] = system: MOLT-4
[7] = system: UACC-257
[8] = system: SK-MEL-5
[9] = system: SF-539
[10] = system: SF-295
[11] = system: CAKI-1
[12] = system: UACC-62
[13] = system: MDA-MB-435
[14] = system: HCT-15
[15] = system: NCI-H23
[16] = system: TK-10
[17] = system: NCI-H522
[18] = system: EKVX
[19] = system: NCI-H226
[20] = system: RXF 393

Row | Compound | GI50 [1] | GI50 [2] | GI50 [3] | GI50 [4] | GI50 [5] | GI50 [6] | GI50 [7] | GI50 [8] | GI50 [9] | GI50 [10] | GI50 [11] | GI50 [12] | GI50 [13] | GI50 [14] | GI50 [15] | GI50 [16] | GI50 [17] | GI50 [18] | GI50 [19] | GI50 [20]
1 | COc1ccc(-c2nc3ncccn3c2-c2ccc(S(C)(=O)=O)cc2)cc1 | 75.7 µM (inactive) | > 100 µM (inactive) | > 100 µM (inactive) | > 100 µM (inactive) | > 100 µM (inactive) | > 100 µM (inactive) | > 100 µM (inactive) | 48.2 µM (inactive) | > 100 µM (inactive) | > 100 µM (inactive) | 24.9 µM (inactive) | 53.6 µM (inactive) | 38 µM (inactive) | > 100 µM | > 100 µM (inactive) |  |  |  |  | 
2 | Cc1ccc(C2SCC(=O)N2c2ccc(-c3ccc(-n4c(-c5ccccc5)nc5ccccc5c4=O)cc3)cc2)cc1 (stereo not drawn) | > 100 µM (inactive) | > 100 µM (inactive) | 18.6 µM (inactive) | 34.9 µM (inactive) | 45.7 µM (inactive) | 34.5 µM (inactive) | > 100 µM (inactive) | 41.1 µM (inactive) |  | > 100 µM (inactive) | > 100 µM (inactive) | > 100 µM (inactive) | 88.3 µM (inactive) | 62.5 µM | > 100 µM (inactive) | > 100 µM (inactive) | 37.2 µM (inactive) | 53.3 µM (inactive) |  | 
3 | CC(C)c1cc(=O)[nH]c2cc(N)ccc12 | > 100 µM (inactive) | > 100 µM (inactive) | > 100 µM (inactive) | > 100 µM (inactive) | > 100 µM (inactive) | > 100 µM (inactive) | > 100 µM (inactive) | > 100 µM (inactive) | > 100 µM (inactive) | > 100 µM (inactive) | > 100 µM (inactive) | 93.8 µM (inactive) | > 100 µM (inactive) | > 100 µM | > 100 µM (inactive) |  |  | > 100 µM (inactive) | > 100 µM (inactive) | > 100 µM (inactive)
4 | Cn1c(-c2ccc(-c3cc(-c4cccs4)c(-c4cccs4)n3C)cc2)cc(-c2cccs2)c1-c1cccs1 |  | > 100 µM (inactive) | > 100 µM (inactive) | > 100 µM (inactive) | > 100 µM (inactive) | > 100 µM (inactive) | > 100 µM (inactive) | > 100 µM (inactive) | > 100 µM (inactive) | > 100 µM (inactive) | > 100 µM (inactive) | > 100 µM (inactive) | > 100 µM (inactive) | > 100 µM |  | > 100 µM (inactive) |  | > 100 µM (inactive) | > 100 µM (inactive) | > 100 µM (inactive)
5 | Clc1sc(Cl)c2c1[C@@H](Cl)C[C@@H]2Cl | > 100 µM (inactive) | > 100 µM (inactive) | 76 µM (inactive) | 23.7 µM (inactive) | > 100 µM (inactive) | 46.6 µM (inactive) | > 100 µM (inactive) | > 100 µM (inactive) | > 100 µM (inactive) | > 100 µM (inactive) | 94.6 µM (inactive) | 13.4 µM (inactive) | 92 µM (inactive) | > 100 µM | 53.8 µM (inactive) | > 100 µM (inactive) | 18.9 µM (inactive) | 62.5 µM (inactive) | 57.3 µM (inactive) | 
6 | O=S(=O)(O)c1ccc(/N=N/c2ccc3c(S(=O)(=O)O)cccc3c2O)c2ccccc12 | > 100 µM (inactive) | > 100 µM (inactive) | 39.3 µM (inactive) |  | > 100 µM (inactive) |  | > 100 µM (inactive) | > 100 µM (inactive) |  | > 100 µM (inactive) | > 100 µM (inactive) | > 100 µM (inactive) | > 100 µM (inactive) | > 100 µM | > 100 µM (inactive) | > 100 µM (inactive) | > 100 µM (inactive) | > 100 µM (inactive) | > 100 µM (inactive) | > 100 µM (inactive)
